The term IC50 denotes the concentration that gives 50% inhibition.

Starred links: 1 amine or outer side, 2 acyl side, 3 side chain; linkers in the order of their positions; H or OH if unused. Positions of bridges follow the written chain, without caps; N, C: chain ends. Non-standard residues stand in square brackets, D forms with d. Residues, ends and D or L forms follow the SMILES beside them. Groups on a side chain read outwards from the residue. *: point of attachment. Trp(1-CH2COOH) = N[C@@H](Cc1cn(CC(=O)O)c2ccccc12)C(=O)O; X73 = FC(F)(F)c1cc(NC(=S)*)cc(C(F)(F)F)c1; NH(2-CF3-phenyl) = FC(F)(F)c1ccccc1N*; X67 = S=C(Nc1c(Cl)c(Cl)cc(Cl)c1Cl)*; Hyp = O=C(O)[C@@H]1C[C@@H](O)CN1; X43 = S=C(Nc1ccccc1Oc1ccccc1)*; NMeNle = CCCC[C@H](NC)C(=O)O; X92 = FC(F)(F)c1cc(Cl)ccc1N*; NMeA = CN[C@@H](C)C(=O)O; Dab = NCC[C@H](N)C(=O)O; Dap = NC[C@H](N)C(=O)O; CO = O=C([*:1])[*:2]

The target in this assay is T1, PD-1/PD-L1 (Homo sapiens, UniProt Q9NZQ7).
T1 construct: TVMV protease site linker (C); made in house; host or cells: HEK293T cells
T1 sequence (Q9NZQ7 18-239): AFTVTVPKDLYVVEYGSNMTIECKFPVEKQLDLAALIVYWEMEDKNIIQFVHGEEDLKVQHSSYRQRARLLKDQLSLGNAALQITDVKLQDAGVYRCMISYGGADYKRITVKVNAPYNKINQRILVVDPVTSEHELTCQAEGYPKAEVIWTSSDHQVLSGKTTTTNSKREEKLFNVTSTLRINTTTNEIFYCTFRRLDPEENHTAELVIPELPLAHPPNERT
The assay is described as follows: PD-1/PD-L1 Homogenous Time-Resolved Fluorescence (HTRF) binding assay. Conditions: PD-L1-His 10 nM pre-incubated with inhibitor, PD-1-Ig 20 nM; read-out: HTRF IC50. The gist of the method:
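Compounds preincubated 15 min with PD-L1-His (10 nM final), then PD-1-Ig (20 nM final) added for 15 min in dPBS with 0.1% BSA, 0.05% Tween-20. Detection by Eu-cryptate anti-Ig (1 nM) and APC anti-His (20 nM) HTRF.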
In general terms: TR-FRET usually uses a lanthanide donor and a delayed reading to cut background.
Regarding `CCCC[C@H]1C(=O)N(C)[C@@H](CCCC)C(=O)N[C@@H](CC(C)C)C(=O)N[C@H](C(=O)NCC(N)=O)CSCC(=O)N[C@@H](Cc2ccc(O)cc2)C(=O)N(C)[C@@H](C)C(=O)N[C@@H](CC(N)=O)C(=O)N2CCC[C@H]2C(=O)N[C@@H](CNC(=S)Nc2c(Cl)c(Cl)cc(Cl)c2Cl)C(=O)N[C@@H](CC(C)C)C(=O)N2C[C@H](O)C[C@H]2C(=O)N[C@@H](Cc2c[nH]c3ccccc23)C(=O)N[C@@H](CCNC(=S)Nc2c(Cl)c(Cl)cc(Cl)c2Cl)C(=O)N[C@@H](Cc2cn(CC(=O)O)c3ccccc23)C(=O)N1C` [Example 1134] ({CH2CO}-Y[NMeA]NP[Dap](X67)L[Hyp]W[Dab](X67)[Trp(1-CH2COOH)][NMeNle][NMeNle]LCG-NH2; thioether N-14), the IC50 was 2.4 nM.

For the compound `CCCC[C@H]1C(=O)N(C)[C@@H](CCCC)C(=O)N[C@@H](CC(C)C)C(=O)N[C@H](C(=O)NCC(N)=O)CSCC(=O)N[C@@H](Cc2ccc(O)cc2)C(=O)N(C)[C@@H](C)C(=O)N[C@@H](CC(N)=O)C(=O)N2CCC[C@H]2C(=O)N[C@@H](CNC(=S)Nc2ccccc2Oc2ccccc2)C(=O)N[C@@H](CC(C)C)C(=O)N2C[C@H](O)C[C@H]2C(=O)N[C@@H](Cc2c[nH]c3ccccc23)C(=O)N[C@@H](CCN)C(=O)N[C@@H](Cc2cn(CC(=O)O)c3ccccc23)C(=O)N1C` [Example 1135] ({CH2CO}-Y[NMeA]NP[Dap](X43)L[Hyp]W[Dab][Trp(1-CH2COOH)][NMeNle][NMeNle]LCG-NH2; thioether N-14), the IC50 came to 4.9 nM.

`CCCC[C@H]1C(=O)N(C)[C@@H](CCCC)C(=O)N[C@@H](CC(C)C)C(=O)N[C@H](C(=O)NCC(N)=O)CSCC(=O)N[C@@H](Cc2ccc(O)cc2)C(=O)N(C)[C@@H](C)C(=O)N[C@@H](CC(N)=O)C(=O)N2CCC[C@H]2C(=O)N[C@@H](CNC(=S)Nc2cc(C(F)(F)F)cc(C(F)(F)F)c2)C(=O)N[C@@H](CC(C)C)C(=O)N2C[C@H](O)C[C@H]2C(=O)N[C@@H](Cc2c[nH]c3ccccc23)C(=O)N[C@@H](CCN)C(=O)N[C@@H](Cc2cn(CC(=O)O)c3ccccc23)C(=O)N1C` [Example 1136] ({CH2CO}-Y[NMeA]NP[Dap](X73)L[Hyp]W[Dab][Trp(1-CH2COOH)][NMeNle][NMeNle]LCG-NH2; thioether N-14): the IC50 stood at 14 nM.

For `CCCC[C@H]1C(=O)N(C)[C@@H](CCCC)C(=O)N[C@@H](CC(C)C)C(=O)N[C@H](C(=O)NCC(N)=O)CSCC(=O)N[C@@H](Cc2ccc(O)cc2)C(=O)N(C)[C@@H](C)C(=O)N[C@@H](CC(N)=O)C(=O)N2CCC[C@H]2C(=O)N[C@@H](CNC(=O)Nc2ccccc2C(F)(F)F)C(=O)N[C@@H](CC(C)C)C(=O)N2C[C@H](O)C[C@H]2C(=O)N[C@@H](Cc2c[nH]c3ccccc23)C(=O)N[C@@H](CCNC(=O)Nc2ccccc2C(F)(F)F)C(=O)N[C@@H](Cc2cn(CC(=O)O)c3ccccc23)C(=O)N1C` [Example 1137] ({CH2CO}-Y[NMeA]NP[Dap]([CO-NH(2-CF3-phenyl)])L[Hyp]W[Dab]([CO-NH(2-CF3-phenyl)])[Trp(1-CH2COOH)][NMeNle][NMeNle]LCG-NH2; thioether N-14), the IC50 is 20 nM.

As to `CCCC[C@H]1C(=O)N(C)[C@@H](CCCC)C(=O)N[C@@H](CC(C)C)C(=O)N[C@H](C(=O)NCC(N)=O)CSCC(=O)N[C@@H](Cc2ccc(O)cc2)C(=O)N(C)[C@@H](C)C(=O)N[C@@H](CC(N)=O)C(=O)N2CCC[C@H]2C(=O)N[C@@H](CNC(=O)Nc2ccc(Cl)cc2C(F)(F)F)C(=O)N[C@@H](CC(C)C)C(=O)N2C[C@H](O)C[C@H]2C(=O)N[C@@H](Cc2c[nH]c3ccccc23)C(=O)N[C@@H](CCNC(=O)Nc2ccc(Cl)cc2C(F)(F)F)C(=O)N[C@@H](Cc2cn(CC(=O)O)c3ccccc23)C(=O)N1C` [Example 1138] ({CH2CO}-Y[NMeA]NP[Dap]([CO-X92])L[Hyp]W[Dab]([CO-X92])[Trp(1-CH2COOH)][NMeNle][NMeNle]LCG-NH2; thioether N-14), the half-inhibitory concentration (IC50) came to 9.7 nM.

Source of the values: patent publication US20220389061A1, “IMMUNOMODULATORS” (priority 2019, published 2022).
